Molecules are shown by their SMILES.

The results in this text go back to EP1944296A1, “Amorphous phase of a substituted pyrazoline, its preparation and use as medicaments” (Laboratorios del Dr. Esteve S.A., priority 2007, dated 2008).

The experiment has as its target T1, recombinant human cannabinoid 1 receptor (CB1) (Homo sapiens, UniProt P21554).
T1 construct: expressed in transfected cells; membrane preparation
Kind of experiment: In vitro determination of antagonism to CB1-receptor, [35S]GTPγS binding assay. The following applies: compound 1 µM vs agonist WIN 55,212-2; 100 % = effect of Rimonabant (1 µM). In kind it is biochemical. As for the experimental part: The reaction is performed in 96-well plates. […] Radioactivity is determined using a Wallac Microbeta Trilux. Each experiment is performed at least in duplicate.
The average of basal [^35S]GTPγS binding is subtracted from all binding data.
Background: GTPγS resists hydrolysis and so accumulates on activated G proteins.

T1 sequence (P21554 whole entry): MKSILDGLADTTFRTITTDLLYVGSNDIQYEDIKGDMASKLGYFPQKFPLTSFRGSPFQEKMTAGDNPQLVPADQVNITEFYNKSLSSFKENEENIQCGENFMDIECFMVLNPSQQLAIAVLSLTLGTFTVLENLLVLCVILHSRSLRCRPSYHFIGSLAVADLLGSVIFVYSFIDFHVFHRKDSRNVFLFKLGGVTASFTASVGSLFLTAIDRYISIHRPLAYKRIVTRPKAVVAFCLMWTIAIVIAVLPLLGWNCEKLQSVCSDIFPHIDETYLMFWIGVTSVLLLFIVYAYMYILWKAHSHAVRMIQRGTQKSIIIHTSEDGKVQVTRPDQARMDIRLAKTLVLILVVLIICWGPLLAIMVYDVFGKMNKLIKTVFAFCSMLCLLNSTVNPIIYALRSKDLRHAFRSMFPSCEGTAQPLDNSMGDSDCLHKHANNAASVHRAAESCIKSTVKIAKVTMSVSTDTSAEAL

For the compound `O=C(NN1CCCCC1)C1=NN(c2ccc(Cl)cc2Cl)[C@@H](c2ccc(Cl)cc2)C1` [Example 1, (R)-N-piperidinyl-5-(4-chlorophenyl)-1-(2,4-dichlorophenyl)-4,5-dihydro-1H-pyrazole-3-carboxamide], the Antagonism came to 106%.
